In US8624040B2, “Substituted hydroxamic acids and uses thereof” (Millennium Pharmaceuticals, Inc., priority 2009, dated 2014):

Target: T1, purified human HDAC6 (Homo sapiens, UniProt Q9UBN7)
T1 construct: purchased BPS Bioscience 5006
T1 sequence (Q9UBN7 1-1215): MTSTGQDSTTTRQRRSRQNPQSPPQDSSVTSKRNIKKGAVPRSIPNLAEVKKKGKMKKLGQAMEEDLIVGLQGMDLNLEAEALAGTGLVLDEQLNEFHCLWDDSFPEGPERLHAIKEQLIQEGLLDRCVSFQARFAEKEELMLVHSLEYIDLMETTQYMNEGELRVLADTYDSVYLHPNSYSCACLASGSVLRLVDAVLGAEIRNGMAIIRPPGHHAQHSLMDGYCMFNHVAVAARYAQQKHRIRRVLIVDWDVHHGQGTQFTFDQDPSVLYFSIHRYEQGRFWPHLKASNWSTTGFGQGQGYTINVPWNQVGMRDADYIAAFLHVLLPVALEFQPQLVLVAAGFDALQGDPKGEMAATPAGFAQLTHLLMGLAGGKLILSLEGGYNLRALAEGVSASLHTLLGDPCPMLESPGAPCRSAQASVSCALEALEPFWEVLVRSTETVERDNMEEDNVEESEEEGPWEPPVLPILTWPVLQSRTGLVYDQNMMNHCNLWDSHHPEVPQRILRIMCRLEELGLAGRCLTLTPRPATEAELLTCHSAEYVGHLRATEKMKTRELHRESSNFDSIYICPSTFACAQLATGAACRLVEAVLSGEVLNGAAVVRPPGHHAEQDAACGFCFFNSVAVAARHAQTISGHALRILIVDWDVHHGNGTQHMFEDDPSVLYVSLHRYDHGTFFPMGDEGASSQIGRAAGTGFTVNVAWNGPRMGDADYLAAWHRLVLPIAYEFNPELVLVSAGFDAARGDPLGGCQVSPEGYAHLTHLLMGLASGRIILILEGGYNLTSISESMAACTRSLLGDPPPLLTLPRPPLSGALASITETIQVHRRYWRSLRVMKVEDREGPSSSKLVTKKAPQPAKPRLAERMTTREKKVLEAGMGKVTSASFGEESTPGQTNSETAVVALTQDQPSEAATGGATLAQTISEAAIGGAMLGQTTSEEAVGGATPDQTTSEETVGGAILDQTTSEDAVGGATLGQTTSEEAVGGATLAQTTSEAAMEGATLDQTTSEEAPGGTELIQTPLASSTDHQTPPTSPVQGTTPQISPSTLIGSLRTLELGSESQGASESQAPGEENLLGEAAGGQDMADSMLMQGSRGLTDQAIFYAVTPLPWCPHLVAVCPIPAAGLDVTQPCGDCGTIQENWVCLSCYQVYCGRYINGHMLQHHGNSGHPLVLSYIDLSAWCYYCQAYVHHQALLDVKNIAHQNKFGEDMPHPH
Assay: HDAC6 Enzyme Assay
Type: biochemical
Conditions: enzyme inhibition, substrate Ac-Arg-Gly-Lys(Ac)-AMC, 1 hour at 30° C.
Protocol: To measure the inhibition of HDAC6 activity, purified human HDAC6 (BPS Bioscience; Cat. No. 5006) is incubated with substrate Ac-Arg-Gly-Lys(Ac)-AMC peptide (Bachem Biosciences; Cat. No. I-1925) for 1 hour at 30° C. in the presence of test compounds or vehicle DMSO control. The reaction is stopped with the HDAC inhibitor trichostatin A (Sigma; Cat. No. T8552) and the amount of Arg-Gly-Lys-AMC generated is quantitated by digestion with trypsin (Sigma; Cat. No. T1426) and subsequent measurement of the amount of AMC released using a fluorescent plate reader (Pherastar; BMG Technologies) set at Ex 340 nm and Em 460 nm. Concentration response curves are generated by calculating the fluorescence increase in test compound-treated samples relative to DMSO-treated controls, and enzyme inhibition (IC50) values are determined from those curves.

Structure (SMILES)	IC50 [nM]
Cc1c(C(=O)NO)sc2c1CN(C(=O)c1ccc(C(C)(C)C)cc1)CC2 [Compound 225, 5-(4-tert-butylbenzoyl)-N-hydroxy-3-methyl-4,5,6,7-tetrahydrothieno[3,2-c]pyridine-2-carboxamide]	50 to 100
O=C(NO)c1cc2c(s1)CN(S(=O)(=O)CC(c1ccccc1)c1ccccc1)CC2 [Compound 18, 6-[(2,2-diphenylethyl)sulfonyl]-N-hydroxy-4,5,6,7-tetrahydrothieno[2,3-c]pyridine-2-carboxamide]	< 50
CCC(Oc1ccccc1)C(=O)N1CCc2cc(C(=O)NO)sc2C1 (stereo not drawn) [Compound 6, N-hydroxy-6-(2-phenoxybutanoyl)-4,5,6,7-tetrahydrothieno[2,3-c]pyridine-2-carboxamide]	< 50
CC(=O)Nc1cc(NC(C)=O)cc(C(=O)N2CCc3cc(C(=O)NO)sc3C2)c1 [Compound 131, 6-[3,5-bis(acetylamino)benzoyl]-N-hydroxy-4,5,6,7-tetrahydrothieno[2,3-c]pyridine-2-carboxamide]	< 50
O=C(NO)c1cc2c(s1)CN(Cc1ccc3c(c1)OCCCO3)CC2 [Compound 22, 6-(3,4-dihydro-2H-1,5-benzodioxepin-7-ylmethyl)-N-hydroxy-4,5,6,7-tetrahydrothieno[2,3-c]pyridine-2-carboxamide]	< 50
O=C(NO)c1cc2c(s1)CN(C(=O)c1cc3ccccc3s1)C2 [Compound 231, 5-(1-benzothien-2-ylcarbonyl)-N-hydroxy-5,6-dihydro-4H-thieno[2,3-c]pyrrole-2-carboxamide]	< 50
Cc1oc(S(=O)(=O)N2CCCCC2)cc1C(=O)N1CCc2cc(C(=O)NO)sc2C1 [Compound 16, N-hydroxy-6-[2-methyl-5-(piperidin-1-ylsulfonyl)-3-furoyl]-4,5,6,7-tetrahydrothieno[2,3-c]pyridine-2-carboxamide]	< 50
O=C(NO)c1cc2c(s1)CN(C(=O)Cc1cc(F)cc(F)c1)CC2 [Compound 52, 6-(2-(3,5-difluorophenyl)acetyl)-N-hydroxy-4,5,6,7-tetrahydrothieno[2,3-c]pyridine-2-carboxamide]	50 to 100
O=C(NO)c1cc2c(s1)CN(C(=O)C(C1CCCCC1)C1CCCCC1)CC2 [Compound 10, 6-(dicyclohexylacetyl)-N-hydroxy-4,5,6,7-tetrahydrothieno[2,3-c]pyridine-2-carboxamide]	50 to 100
O=C(NO)c1cc2c(s1)CN(C(=O)CC1c3ccccc3-c3ccccc31)CC2 [Compound 17, 6-(9H-fluoren-9-ylacetyl)-N-hydroxy-4,5,6,7-tetrahydrothieno[2,3-c]pyridine-2-carboxamide]	> 1000
O=C(NO)c1cc2c(s1)CN(Cc1cccc3nsnc13)CC2 [Compound 25, 6-(2,1,3-benzothiadiazol-4-ylmethyl)-N-hydroxy-4,5,6,7-tetrahydrothieno[2,3-c]pyridine-2-carboxamide]	< 50
O=C(NO)c1cc2c(s1)CN(Cc1ccc(-n3cccn3)cc1)CC2 [Compound 23, N-hydroxy-6-[4-(1H-pyrazol-1-yl)benzyl]-4,5,6,7-tetrahydrothieno[2,3-c]pyridine-2-carboxamide]	< 50
CC1(C(=O)N2CCc3sc(C(=O)NO)cc3C2)CCCCC1 [Compound 28, N-hydroxy-5-(1-methylcyclohexanecarbonyl)-4,5,6,7-tetrahydrothieno[3,2-c]pyridine-2-carboxamide]	< 50
Cc1ccc(OCC(=O)N2CCc3cc(C(=O)NO)sc3C2)c(C)c1 [Compound 12, 6-[(2,4-dimethylphenoxy)acetyl]-N-hydroxy-4,5,6,7-tetrahydrothieno[2,3-c]pyridine-2-carboxamide]	> 1000
CCC(C(=O)N1CCc2cc(C(=O)NO)sc2C1)(c1ccccc1)c1ccccc1 [Compound 9, 6-(2,2-diphenylbutanoyl)-N-hydroxy-4,5,6,7-tetrahydrothieno[2,3-c]pyridine-2-carboxamide]	50 to 100
Cc1noc(C)c1S(=O)(=O)N1CCc2cc(C(=O)NO)sc2C1 [Compound 20, 6-[(3,5-dimethylisoxazol-4-yl)sulfonyl]-N-hydroxy-4,5,6,7-tetrahydrothieno[2,3-c]pyridine-2-carboxamide]	< 50
Cc1onc(-c2ccc(F)cc2)c1C(=O)N1CCc2cc(C(=O)NO)sc2C1 [Compound 184, 6-{[3-(4-fluorophenyl)-5-methylisoxazol-4-yl]carbonyl}-N-hydroxy-4,5,6,7-tetrahydrothieno[2,3-c]pyridine-2-carboxamide]	< 50
CC1(C)CN(C(=O)c2ccccn2)Cc2cc(C(=O)NO)sc21 [Compound 220, N-hydroxy-7,7-dimethyl-5-(pyridin-2-ylcarbonyl)-4,5,6,7-tetrahydrothieno[3,2-c]pyridine-2-carboxamide]	> 1000
O=C(NO)c1cc2c(s1)CN(C(=O)Nc1cccc(C(F)(F)F)c1)CC2 [Compound 54, N^2-hydroxy-N^6-[3-(trifluoromethyl)phenyl]-4,7-dihydrothieno[2,3-c]pyridine-2,6(5H)-dicarboxamide]	< 50
Cc1c(C(=O)NO)sc2c1CN(C(=O)c1ccc(-c3ccccc3)cc1)CC2 [Compound 233, 5-(biphenyl-4-ylcarbonyl)-N-hydroxy-3-methyl-4,5,6,7-tetrahydrothieno[3,2-c]pyridine-2-carboxamide]	< 50

The remaining lines, values ahead:

IC50 [nM]	Structure (SMILES)
50 to 100	Cc1noc(C)c1CC(=O)N1CCc2cc(C(=O)NO)sc2C1 [Compound 62, 6-(2-(3,5-dimethylisoxazol-4-yl)acetyl)-N-hydroxy-4,5,6,7-tetrahydrothieno[2,3-c]pyridine-2-carboxamide]
< 50	COc1c(C(=O)N2CCc3cc(C(=O)NO)sc3C2)csc1Cl [Compound 7, 6-[(5-chloro-4-methoxy-3-thienyl)carbonyl]-N-hydroxy-4,5,6,7-tetrahydrothieno[2,3-c]pyridine-2-carboxamide]
< 50	O=C(NO)c1cc2c(s1)CN(C(=O)c1cccc3cccnc13)CC2 [Compound 99, N-hydroxy-6-(quinoline-8-carbonyl)-4,5,6,7-tetrahydrothieno[2,3-c]pyridine-2-carboxamide]
< 50	Cc1cccc(NC(=O)N2CCc3cc(C(=O)NO)sc3C2)c1 [Compound 80, N^2-hydroxy-N^6-(3-methylphenyl)-4,7-dihydrothieno[2,3-c]pyridine-2,6(5H)-dicarboxamide]
< 50	Cc1ncsc1C(=O)N1CCc2cc(C(=O)NO)sc2C1 [Compound 98, N-hydroxy-6-[(4-methyl-1,3-thiazol-5-yl)carbonyl]-4,5,6,7-tetrahydrothieno[2,3-c]pyridine-2-carboxamide]
< 50	Cn1cccc1C(=O)N1CCc2cc(C(=O)NO)sc2C1 [Compound 116, N-hydroxy-6-[(1-methyl-1H-pyrrol-2-yl)carbonyl]-4,5,6,7-tetrahydrothieno[2,3-c]pyridine-2-carboxamide]
< 50	CC(C)(C)C(=O)N1CCc2cc(C(=O)NO)sc2C1 [Compound 1, 6-(2,2-dimethylpropanoyl)-N-hydroxy-4,5,6,7-tetrahydrothieno[2,3-c]pyridine-2-carboxamide]
50 to 100	O=C(NO)c1cc2c(s1)CN(C(=O)c1ccc(F)cc1)CC2 [Compound 182, 6-(4-fluorobenzoyl)-N-hydroxy-4,5,6,7-tetrahydrothieno[2,3-c]pyridine-2-carboxamide]
< 50	Cc1ccoc1C(=O)N1CCc2cc(C(=O)NO)sc2C1 [Compound 94, N-hydroxy-6-(3-methyl-2-furoyl)-4,5,6,7-tetrahydrothieno[2,3-c]pyridine-2-carboxamide]
50 to 100	CCn1nc(C)cc1C(=O)N1CCc2cc(C(=O)NO)sc2C1 [Compound 149, 6-[(1-ethyl-3-methyl-1H-pyrazol-5-yl)carbonyl]-N-hydroxy-4,5,6,7-tetrahydrothieno[2,3-c]pyridine-2-carboxamide]
